{
  "source": "paper PMC10609854",
  "about": "(Pharmaceuticals, 2023)",
  "key": {"CQ-induced pruritus": {"system": "CQ-induced pruritus", "experiment": "chloroquine (CQ)-induced pruritus", "format": "in vivo, mice", "details": "mice, 2.5, 5, 10 and 15 mg/kg i.p.; 30 min observation", "procedure": "The area (around 2 cm^2) of the nape of mice was shaved at least 2 days prior to experiments. On the day of the experiment, each mouse was individually placed in plastic chambers (15 × 15 × 30 cm). After the 30 min period of habituation, the mice received an intradermal (i.d.) injection of histamine dihydrochloride (10 µmol/site), chloroquine (CQ, 200 µg/site), or SLIGRL-NH2 (40 nmol/site), which were dissolved in physiological saline and administrated at the constant volume of 20 μL. Immediately following the injection, scratching (series of movements considered as a single scratching bout usually consisted of three single scratches) of the injected site by the hind paw was counted for 60 min, 30 min, or 45 min after histamine, CQ, and SLIGRL-NH2 injection, respectively."}, "H3R": {"system": "H3R", "parameters": "method as in PMID 28797771", "details": "read-out: IC50, cAMP accumulation assay (H3R antagonist potency); cited from earlier work"}, "[1]": {"system": "OXPT-induced tactile allodynia", "experiment": "oxaliplatin-induced neuropathic pain, von Frey test", "format": "in vivo", "details": "mice", "procedure": "Neuropathy was induced by administering a single dose (10 mg/kg) of Oxaliplatin (OXPT) dissolved in a 5% glucose solution (Polfa Kutno, Poland). To assess the response to mechanical stimuli, the von Frey test was carried with application of the electronic von Frey unit (Bioseb, France). The apparatus contained a single flexible filament, which was used to apply increasing force ranging from 0 to 10 g to the plantar surface of the mouse’s hind paw. The crossing of pain threshold led to the paw withdrawal. The mechanical pressure that evoked the nocifensive response was subsequently recorded. The measurement was performed before the OXPT administration and 7 days afterwards. The compounds were administrated to the animals with developed mechanical allodynia observed as a statistically significant decrease in pain threshold. On the day of the experiment, each mouse was placed in an observation chamber with a wire mesh bottom and was allowed to habituate for 1 h. After the habituation period, the mouse pain threshold was tested 3 times alternately with at least a 30 s gap between each measurement. The mean of these three consecutive measurements was taken as a baseline value. The mice with tactile allodynia were i.p. pretreated with the tested compound or their combinations, and 30 min later the animals were tested again according to the same procedure."}},
  "note": "pIC50: −log10 of the molar value.",
  "data": [
    {"compound": "O=C(O)C(=O)O.c1ccc(-c2ccc(OCCCCCN3CCCCCC3)cc2)cc1", "note": "[Compound E153, 1-(5-(4-Phenylphenoxy)pentyl)azepane hydrogen oxalate]", "values": [
      {"measurement": "number of scratch bouts, CQ-induced pruritus", "setting": "CQ-induced pruritus", "result": "significantly decreased"},
      {"measurement": "pIC50", "setting": "H3R", "result": 8.05},
      {"measurement": "von Frey paw withdrawal force, % of baseline", "setting": "[1]; 10 mg/kg i.p., early phase (3 h after OXPT), OXPT alone 60.13%", "result": 71.5, "unit": "%"},
      {"measurement": "reversal of the effect of OXPT (von Frey)", "setting": "[1]; 10 mg/kg i.p., late phase (7 days after OXPT)", "result": "not in late phase"},
      {"measurement": "von Frey paw withdrawal force, % of baseline", "setting": "[1]; 15 mg/kg i.p., early phase (3 h), OXPT alone 60.5%", "result": 80.0, "unit": "%"},
      {"measurement": "von Frey paw withdrawal force, % of baseline", "setting": "[1]; 15 mg/kg i.p., late phase (7 days), OXPT alone 57.4%", "result": 79.4, "unit": "%"},
      {"measurement": "von Frey paw withdrawal force, % of baseline", "setting": "[1]; 30 mg/kg i.p., early phase (3 h), OXPT alone 57.9%", "result": 97.9, "unit": "%"},
      {"measurement": "von Frey paw withdrawal force, % of baseline", "setting": "[1]; 30 mg/kg i.p., late phase (7 days), OXPT alone 60.6%", "result": 87.9, "unit": "%"}
    ]}
  ]
}
